# Experimental data reported in US5900488A, “Method for treating mycosis using imidazolylacetonitrile derivatives” (Nihon Nohyaku Co., Ltd., priority 1995, dated 1999).
# “Also recorded” adds a separate entry of the source. Like-named read-outs stand apart in the source and are kept apart here.
# Tests used:
# [1] = system: Trichophyton mentagrophytes; test: In vitro activity against Trichophyton mentagrophytes, MIC by twofold macro-broth dilution (Test Example 1); assay type: cell-based; settings: for MIC: Trichophyton mentagrophytes, 7 days at 27° C.
# Method: (§1) Minimum inhibitory concentrations (MICs) were determined by the twofold macro-broth dilution method with Sabouraud's glucose broth which constituted with 1% bactopeptone and 4% glucose. To each tube containing 9.8 ml of the broth, 0.1 ml of each testing compound dissolved in DMSO and 0.1 ml of a conidial suspension (1×10^6 conidia/ml) were added. The fungal growth was observed after incubation for 7 days at 27° C. The MIC was determined as the lowest drug concentration which prevented a visible fungal growth.
# Trichophyton rubrum = test: In vitro activity against Trichophyton rubrum, MIC by twofold macro-broth dilution (Test Example 1); assay type: cell-based
# Method: as §1
# [2] = system: trichophyton mentagrophytes TIMM 2789; test: Therapeutic efficacy on experimental tinea pedis in guinea pigs (Test Example 2); assay type: in vivo
# Method: Male Hartley guinea pigs (Japan SLC Inc.) weighing 400 to 620 g were used for the infection study. One side of a paper disc (1.5 mm thick×8 mm diameter) was covered with a piece of aluminum foil while the other side was free to carry the inoculum suspension. The disc was immersed with 50 μl of the inoculum suspension (trichophyton mentagrophytes TIMM 2789, 1×10^8 conidia/ml), and was then fixed on the planta pedis of animal feet with an adhesive elastic tape. The disc was removed on the seventh day postinfection. Each agent dissolved in PEG 400 (0.1 ml/locus) was topically applied to the whole soles of guinea pigs once a day for 3 consecutive days, starting on the 10th day postinfection. Five days after the last treatment, the skin tissue from each planta pedis and the corresponding tarsus of all animals was cut into small blocks (about 2×2 mm). Ten skin blocks obtained from each part of the foot were implanted on a Sabouraud's glucose agar plate containing antibiotics, and were cultured at 27° C. for 14 days. The skin blocks yielding fungal growth were regarded as culture-positive, and the foot (planta pedis plus tarsus) with more than one culture-positive skin block was considered fungus-positive. In addition, the intensity of infection was assessed by the scores based on the number of culture-positive skin blocks. Namely, +10, +9, +8, +7, +6, +5, +4, +3, +2, +1 or 0 was given as the score according to the corresponding number of culture-positive skin blocks out of ten skin blocks studied. Statistical analyses for the rate of fungus-positive feet and the average intensity of infection were assessed by Fisher's exact probably test and Mann-Whitney's U-test, respectively.
# Candida albicans = test: In vitro antifungal activity against Candida albicans, MIC by twofold micro-broth dilution (Test Example 3); assay type: cell-based; settings: 48 hours at 35° C., pH 7.0, read-out: MIC
# Method: MICs were determined by the twofold micro-broth dilution method with RPMI 1640 buffered with morphorino-propanesulfonic acid to a final molarity of 0.165M (pH 7.0). One hundred μl of a yeast cell suspension (1 to 5×10^3 cells/ml) and 100 μl of the compound-containing medium were pipetted into each well flat-bottomed microtiter plates. After incubation for 48 hours at 35° C., the turbidity of each well was measured at 630 nm.
# Aspergillus fumigatus = test: In vitro antifungal activity against Aspergillus fumigatus, MIC by twofold agar dilution (Test Example 4); assay type: cell-based; settings: read-out: MIC
# Method: MICs were determined by the twofold agar dilution method with casitone agar which constituted with 0.9% bactocasitone, 1% bacto-yeast extract, 2% glucose, 0.1% KH2 PO4, 0.1% Na2 HPO4, 1% Na3 C6 H5 O7 and 1.6% agar. A loopful of each inoculum (1×10^6 conidia/ml) was streaked onto the agar plate containing a compound, and a fungal growth was observed after incubation for 48 hours at 35° C. The MIC was determined as the lowest drug concentration which prevented a visible fungal growth.
# dermatophytes = test: Antifungal activity against dermatophytes compared with racemic mixtures (general statement); settings: especially highly sensitive strains
# [3] = 0.5% in PEG 400, topical once a day for 3 days, p < 0.01 vs untreated and PEG 400 control
# [4] = 1% in PEG 400, topical once a day for 3 days, p < 0.01 vs untreated and PEG 400, Compound (A) also p < 0.05 vs 1% Racemic Compound (A)
# [5] = 1% in PEG 400, topical once a day for 3 days, p < 0.01 vs untreated and PEG 400 control
structure (smiles),measurement,setting,value
"N#C/C(=C1/SC[C@@H](c2ccccc2Cl)S1)n1ccnc1 [Compound (A), R-(+)-(E)-[4-(2-chlorophenyl)-1,3-dithiolan-2-ylidene]-1-imidazolylacetonitrile]",in vitro antifungal activity relative to Racemic Compound (A),[1]; MIC for T. mentagrophytes TIMM 2789,4 times
same,MIC,"[1]; IFO5466, 168 h, strain IFO 5466",20 ng/mL
same,MIC,"[1]; IFO5809, 168 h, strain IFO 5809",5 ng/mL
same,MIC,"[1]; IFO5810, 168 h, strain IFO 5810",5 ng/mL
same,MIC,"[1]; IFO5811, 168 h, strain IFO 5811",20 ng/mL
same,MIC,"[1]; IFO5929, 168 h, strain IFO 5929",10 ng/mL
same,MIC,"[1]; TIMM1189, 168 h, strain TIMM 1189",10 ng/mL
same,MIC,"[1]; TIMM1814, 168 h, strain TIMM 1814",20 ng/mL
same,MIC,"[1]; TIMM1815, 168 h, strain TIMM 1815",20 ng/mL
same,MIC,"[1]; TIMM1817, 168 h, strain TIMM 1817",20 ng/mL
same,MIC,"[1]; TIMM2789, 168 h, strain TIMM 2789",5 ng/mL
same,sensitivity (in words),Trichophyton rubrum,highly sensitive
same,MIC,"Trichophyton rubrum; IFO5467, 168 h, strain IFO 5467, 7 days at 27° C.",1.3 ng/mL
same,MIC,"Trichophyton rubrum; IFO5807, 168 h, strain IFO 5807, 7 days at 27° C.",2.5 ng/mL
same,MIC,"Trichophyton rubrum; IFO5808, 168 h, strain IFO 5808, 7 days at 27° C.",2.5 ng/mL
same,MIC,"Trichophyton rubrum; IFO6203, 168 h, strain IFO 6203, 7 days at 27° C.",2.5 ng/mL
same,MIC,"Trichophyton rubrum; IFO6204, 168 h, strain IFO 6204, 7 days at 27° C.",2.5 ng/mL
same,MIC,"Trichophyton rubrum; IFO9185, 168 h, strain IFO 9185, 7 days at 27° C.",1.3 ng/mL
same,MIC,"Trichophyton rubrum; TIMM1822, 168 h, strain TIMM 1822, 7 days at 27° C.",1.3 ng/mL
same,MIC,"Trichophyton rubrum; TIMM1823, 168 h, strain TIMM 1823, 7 days at 27° C.",2.5 ng/mL
same,MIC,"Trichophyton rubrum; TIMM1824, 168 h, strain TIMM 1824, 7 days at 27° C.",1.3 ng/mL
same,MIC,"Trichophyton rubrum; TIMM1830, 168 h, strain TIMM 1830, 7 days at 27° C.",0.63 ng/mL
same,effect relative to 1% Racemic Compound (A),[2]; 0.5% Compound (A) vs 1% Racemic Compound (A),twice; also recorded: more than twice
same,"Average intensity of infection, planta pedis (score 0 to +10)",[2]; [3],+0.3
same,"Average intensity of infection, tarsus (score 0 to +10)",[2]; [3],0
same,Fungus-positive rate (%),[2]; [3],20%
same,Fungus-positive rate: The number of positive feet/The total number of feet,[2]; [3],2/10
same,Fungus-positive rate (%),[2]; [4],0%
same,Fungus-positive rate: The number of positive feet/The total number of feet,[2]; [4],0/10
same,"Average intensity of infection, planta pedis (score 0 to +10)",[2]; [5],0
same,"Average intensity of infection, tarsus (score 0 to +10)",[2]; [5],0
same,curative effect (in words),[2]; 1% treated group,mycologically complete healing
same,curative effect compared with Racemic Compound (A),[2]; at the same concentration,markedly higher
same,MIC,"Candida albicans; IFO0197, strain IFO 0197, 80% inhibition",62.5 ng/mL
same,MIC,"Candida albicans; IFO0579, strain IFO 0579, 80% inhibition",31.3 ng/mL
same,MIC,"Candida albicans; IFO1269, strain IFO 1269, 80% inhibition",62.5 ng/mL
same,MIC,"Candida albicans; IFO1270, strain IFO 1270, 80% inhibition",250 ng/mL
same,MIC,"Candida albicans; IFO1385, strain IFO 1385, 80% inhibition",62.5 ng/mL
same,MIC,"Candida albicans; IFO1386, strain IFO 1386, 80% inhibition",125 ng/mL
same,MIC,"Candida albicans; TIMM3163, strain TIMM 3163, 80% inhibition",4000 ng/mL
same,MIC,"Candida albicans; TIMM3164, strain TIMM 3164, 80% inhibition",250 ng/mL
same,MIC,"Candida albicans; TIMM3165, strain TIMM 3165, 80% inhibition",2000 ng/mL
same,MIC,"Candida albicans; TIMM3166, strain TIMM 3166, 80% inhibition",1000 ng/mL
same,MIC,"Aspergillus fumigatus; TIMM0063, strain TIMM 0063, 48 hours at 35° C.",0.63 ng/mL
same,MIC,"Aspergillus fumigatus; TIMM0078, strain TIMM 0078, 48 hours at 35° C.",0.63 ng/mL
same,MIC,"Aspergillus fumigatus; TIMM1728, strain TIMM 1728, 48 hours at 35° C.",1.3 ng/mL
same,MIC,"Aspergillus fumigatus; TIMM1767, strain TIMM 1767, 48 hours at 35° C.",1.3 ng/mL
same,antifungal activity relative to the racemic mixtures,dermatophytes,several times
